Calls of active or inactive are those of the source. The calls are words filed in the database; no cut-off is given here. Where a SMILES comes first, the peptide text is derived from it. Bridges are numbered along the chain shown (N, C = ends). [ ]: non-standard residue; d: D form. The star is where a group is joined. X1 = CC[C@H](C)CCCCC(=O)*; Dab = NCC[C@H](N)C(=O)O
Assays:
Klebsiella pneumoniae [1] = test: Antibacterial activity against Klebsiella pneumoniae ATCC 700603 incubated with 2000 ug/ml chymotrypsin for 6 hrs followed by bacterial addition and measured after 18 hrs by CLSI based broth dilution method; format: functional, organism-based; settings: dose 2000.0 µg/ml, time 23.0 hrs
Cell membrane = test: Disruption of membrane integrity in Klebsiella pneumoniae ATCC 700603 assessed as membrane swelling at 1 times MIC incubated for 0.5 to 2 hrs by scanning electron microscopy; format: subcellular; settings: Klebsiella pneumoniae 700603, time 0.5-2 hrs
Klebsiella pneumoniae [2] = test: Antibacterial activity against Klebsiella pneumoniae ATCC 700603 infected in BALB/C mouse assessed as reduction in bacterial load at 5 mg/kg, ip by hematoxylin and eosin staining based assay; format: functional, organism-based
Escherichia coli = test: Antibiofilm activity against Escherichia coli ATCC 25922 at 4 times MIC incubated for 24 hrs by crystal violet staining based assay; format: functional, organism-based
Staphylococcus aureus [3] = test: Drug localization in surface of Staphylococcus aureus ATCC 25923 at 2 times MIC incubated for 30 mins using ACD-labeled compound by PI-staining based laser scanning confocal microscopic analysis; format: functional, organism-based
[4] = Toxicity in BALB/C mouse assessed as effect on liver at 19 mg/kg, ip administered as single dose by hematoxylin and eosin staining based assay; format: organism-based; settings: in vivo
Staphylococcus aureus [5] = test: Antibacterial activity against Staphylococcus aureus ATCC 25923 incubated with 0.2 to 0.02 ug/ml trypsin for 6 hrs followed by bacterial addition and measured after 18 hrs by CLSI based broth dilution method; format: functional, organism-based; settings: dose 0.2-0.02 µg/ml, time 23.0 hrs
Klebsiella pneumoniae [6] = test: Disruption of membrane integrity in Klebsiella pneumoniae ATCC 700603 assessed as membrane blebbing at 1 times MIC incubated for 0.5 to 2 hrs by scanning electron microscopy; format: functional, organism-based; settings: time 0.5-2 hrs
[7] = Stability in BALB/C mouse serum assessed as compound degradation time measured up to 1440 mins by HPLC analysis; format: ADME, cell-free; settings: 24 h
Klebsiella pneumoniae [8] = test: Synergistic antibacterial activity against Klebsiella pneumoniae ATCC 700603 at 2 times MIC incubated for 18 to 24 hrs in presence of 2 times MIC of polymyxin B by broth microdilution assay based checkerboard assay; format: functional; settings: time 18-24 hrs
[9] = Induction of nephrotoxicity in BALB/C mouse at 82 mg/kg, ip administered as single dose by hematoxylin and eosin staining based assay; format: organism-based; settings: in vivo
Lipopolysaccharide (LPS) = test: Binding affinity to LPS (unknown origin) assessed as bacterial killing at 2 times MIC preincubated for 1 hr followed by Escherichia coli ATCC 25922 addition and measured after 2 hrs by absorbance method relative to polymyxin B; settings: time 3.0 hrs
Klebsiella pneumoniae [10] = test: Antibacterial activity against Klebsiella pneumoniae ATCC 700603 infected in BALB/C mouse assessed as reduction in inflammatory response at 5 to 10 mg/kg, ip by hematoxylin and eosin staining based assay; format: functional, organism-based; settings: dose 5-10 mg/kg
Klebsiella pneumoniae [11] = test: Antibacterial activity against Klebsiella pneumoniae ATCC 700603 infected in BALB/C mouse assessed as reduction in bacterial load at 5 to 10 mg/kg, ip by hematoxylin and eosin staining based assay; format: functional, organism-based; settings: dose 5-10 mg/kg
HK-2 = test: Cytotoxicity against human HK2 cells incubated for 12 hrs by MTT assay; format: cell-based; settings: HK-2, 12 h
A549 = test: Cytotoxicity against human A549 cells incubated for 12 hrs by MTT assay; format: cell-based; settings: A549, 12 h
[12] = Toxicity in BALB/C mouse assessed as induction of inflammatory reaction at 19 mg/kg, ip administered as single dose by hematoxylin and eosin staining based assay; format: organism-based; settings: in vivo
Pseudomonas aeruginosa = test: Antibacterial activity against Pseudomonas aeruginosa ATCC 27853 at sub-MIC level after 15 passages by broth microdilution assay; format: functional, organism-based
Staphylococcus aureus [13] = test: Disruption of membrane integrity in Staphylococcus aureus ATCC 25923 assessed as pore formation at 1 times MIC incubated for 0.5 to 2 hrs by scanning electron microscopy; format: functional, organism-based; settings: time 0.5-2 hrs

Compound | Activity (Klebsiella pneumoniae [1]) | Activity (Cell membrane) | Activity (Klebsiella pneumoniae [2]) | Activity (Escherichia coli) | Activity (Staphylococcus aureus [3]) | Activity [4] | Activity (Staphylococcus aureus [5]) | Activity (Klebsiella pneumoniae [6]) | Time [7] [min] | FIC (Klebsiella pneumoniae [8]) | Activity [9] | fold change (FC) (Lipopolysaccharide (LPS)) | Activity (Klebsiella pneumoniae [10]) | Activity (Klebsiella pneumoniae [11]) | IC50 (HK-2) [µM] | IC50 (A549) [µM] | Activity [12] | Activity (Pseudomonas aeruginosa) | Activity (Staphylococcus aureus [13])
CC[C@H](C)CCCCC(=O)N[C@@H](CCN)C(=O)N[C@H](C(=O)N[C@@H](CCN)C(=O)N[C@H]1CCNC(=O)[C@H]([C@@H](C)O)NC(=O)[C@H](CCN)NC(=O)[C@H](CCN)NC(=O)[C@H](CC(C)C)NC(=O)[C@@H](Cc2ccccc2)NC(=O)[C@H](CCN)NC1=O)[C@@H](C)O (X1-[Dab]T[Dab][Dab][Dab][dF]L[Dab][Dab]T; lactam 4-C) | Active | Active | inactive | Active |  |  |  |  |  |  |  |  |  |  |  |  |  |  | 
NCCCC[C@H](NC(=O)[C@H](CCCCN)NC(=O)[C@H](Cc1c[nH]c2ccccc12)NC(=O)[C@H](CCCCN)NC(=O)[C@H](CCCCN)NC(=O)[C@H](Cc1c[nH]c2ccccc12)NC(=O)[C@H](Cc1c[nH]c2ccccc12)NC(=O)[C@@H](N)CCCCN)C(=O)N[C@@H](Cc1c[nH]c2ccccc12)C(=O)N[C@@H](Cc1c[nH]c2ccccc12)C(N)=O (H-KWWKKWKKWW-NH2) |  |  |  |  | Active | Toxic | Active | Active | 11.84 | 0.3125 | Toxic | 2 | Active | Active | 63.5 | 87.5 | Toxic | Active | Active

Reference: ChEMBL document CHEMBL4823282, “Novel Broad-Spectrum Antimicrobial Peptide Derived from Anoplin and Its Activity on Bacterial Pneumonia in Mice” (J Med Chem, 2021)
